Experimental data published in patent publication US20160039936A1, “FIBROBLAST GROWTH FACTOR RECEPTOR INHIBITION FOR THE TREATMENT OF DISEASE” (UNIVERSITY OF MIAMI, priority 2011, published 2016).

Tests used:
isolated NRVM = experiment: Cross-sectional area (hypertrophy) of isolated NRVM with receptor antagonists (Example 4); assay type: cell-based, rat; conditions: NRVM 48 h, PD173074 10 nM, AZD4547 5 nM, anti-FGFR4 10 μg/ml
Method: NRVM were isolated using a standard isolation system (Worthington Biochemical Corporation) (Faul et al., 2011). Hearts from 1-2 day old Sprague Dawley rats were harvested, minced in calcium-and magnesium-free Hank's Balanced Salt Solution (HBSS), and the tissue digested with 50 μg/ml trypsin at 4° C. for 20-24 hours. Soybean trypsin inhibitor in HBSS was added, and the tissue was further digested with collagenase (in Leibovitz L-15 medium) under slow rotation (15 rpm) at 37° C. for 45 minutes. Cells were released by triturating the suspension 20 times with a standard 10 ml plastic serological pipette and filtering it twice through a cell strainer (70 μm, BD Falcon). Cells were incubated at room temperature for 20 minutes and spun at 100 g for 5 minutes. The cell pellet was resuspended in plating medium [Dulbecco's Modified Eagle Medium (DMEM; Cellgro) with 17% Media 199 (Invitrogen), 15% fetal bovine serum (FBS; Invitrogen) and 1% penicillin/streptomycin solution (P/S; Invitrogen)]. Cells were counted using a hemocytometer.
Cells were plated on glass and plastic surfaces, which were coated with laminin (Invitrogen; 10 μg/ml in PBS) at room temperature for 1 hour prior to plating. For immunofluorescence analysis, 3×10^5 cells were seeded per well on glass coverslips in 24-well plates. For Western blot or qPCR analyses of total extracts, 1×10^6 cells were seeded per well in 6-well plates, and for immunoprecipitation assays, 5×10^6 cells were seeded in 10 cm-culture dishes. Cells were left undisturbed in plating medium at 37° C. for 72 hours and then cultured in maintenance medium (DMEM with 20% Media 199, 1% insulin-transferrin-sodium selenite solution [ITS; Sigma-Aldrich] and 1% P/S) in the presence of 100 μM 5-bromo-2′-deoxyuridine (BrdU; Sigam-Aldrich). After 4 days, isolated cardiac myocytes were cultured in BrdU-containing maintenance medium in the presence of recombinant murine FGF23 or FGF2 (both at 25 ng/ml) for different time points.
Cultured cells were fixed in 2% PFA (in 5 mg/ml sucrose) for 5 minutes and permeabilized in 1% Triton X-100 (in PBS) for 10 minutes. We analyzed hypertrophic growth of isolated NRVM and NMVM on laminin-coated glass coverslips after 48 hours of treatment with growth factors. For FGFR4 expression and localization analyses, untreated NMVM from wild-type and FGFR4^−/− mice were immunolabeled. The mouse monoclonal antibody against sarcomeric α-actinin (EA-53; Sigma-Aldrich) was used at 1:1,000, and rabbit polyclonal anti-FGFR4 (C-16; Santa Cruz) at 1:50. Cy3-conjugated goat-anti mouse and Alexa488-conjugated goat-anti rabbit (Jackson Immuno Research) were used as secondary antibodies at 1:300. To visualize nuclei, fixed cells were incubated with 4′,6-diamidino-2-phenylindole (DAPI; 400 ng/ml in PBS) for 10 minutes. Immunofluorescence images were taken on a Leica TCS-SP5 confocal microscope with a 63× oil objective.
Myocyte cross-sectional area was measured based on α-actinin-positive staining using Leica AF6000 fluorescence software. To assess the signaling pathways involved in FGF23- and FGF2-mediated hypertrophy, we analyzed the morphometry of plated cells that were pre-treated with specific inhibitors for 60 minutes prior to the addition of the FGFs at 25 ng/ml (NRVMs) or at 100 ng/ml (NMVMs). The following inhibitors and concentrations were used: pan-FGFR, PD173074 (Sigma-Aldrich) at 10 nM; FGFR1-3, AZD4547 (ChemieTek) at 5 nM; and FGFR4 blocking antibody (human monoclonal, U3-11; U3Pharma) at 10 μg/ml.

FGFR = conditions: Hagel M et al 2015; cited from earlier work

| Molecule | FGF2-induced hypertrophy (cross-sectional area) with receptor antagonist (isolated NRVM; FGF2 25 ng/ml) | FGF23-induced hypertrophy (cross-sectional area) with receptor antagonist (isolated NRVM; FGF23 25 ng/ml) | FGFR4 inhibition (FGFR) |
| --- | --- | --- | --- |
| AZD4547 | prevented | but not FGF23-induced hypertrophy | – |
| C=CC(=O)Nc1cccc(C)c1Nc1ncc2cc(-c3c(Cl)c(OC)cc(OC)c3Cl)ccc2n1 [BLU9931] | – | – | very potent and selective |
